Series [1] addresses T1, Chitotriosidase-1 (Homo sapiens, UniProt Q13231). Kind of series: Inhibition of human recombinant full length C-terminal His-tagged chitotriosidase expressed in CHO-K1 cells using 4-methylumbelliferyl-beta-D-N,N',N\"\"-triacetylchitotrioside as substrate after 60 mins by fluorescence assay. Type of series: cell-based.
For series [2], the target named is T2, Acidic mammalian chitinase (Mus musculus, UniProt Q91XA9). Briefly: Inhibition of mouse recombinant full length C-terminal His-tagged acidic mammalian chitinase expressed in CHO-K1 cells using 4-methylumbelliferyl-beta-D-N,N'-diacetylchitobioside hydrate as substrate after 60 mins by fluorescence assay.
T2 sequence (Q91XA9 whole entry): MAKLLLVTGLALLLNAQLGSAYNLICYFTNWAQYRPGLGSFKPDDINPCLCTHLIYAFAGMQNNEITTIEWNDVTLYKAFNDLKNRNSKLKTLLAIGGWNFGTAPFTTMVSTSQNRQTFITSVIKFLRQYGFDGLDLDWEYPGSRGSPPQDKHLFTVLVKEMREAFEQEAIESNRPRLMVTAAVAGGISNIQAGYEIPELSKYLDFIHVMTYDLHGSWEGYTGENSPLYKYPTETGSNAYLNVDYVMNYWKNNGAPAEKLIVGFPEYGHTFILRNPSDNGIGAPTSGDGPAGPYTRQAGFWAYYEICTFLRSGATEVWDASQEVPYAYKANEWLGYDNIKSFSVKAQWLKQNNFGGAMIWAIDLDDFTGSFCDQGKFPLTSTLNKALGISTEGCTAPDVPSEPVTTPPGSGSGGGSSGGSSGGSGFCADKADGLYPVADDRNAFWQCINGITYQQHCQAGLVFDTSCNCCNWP
Series [3] addresses T3, Chitotriosidase-1 (Mus musculus, UniProt Q9D7Q1). Kind of series: Inhibition of mouse recombinant full length C-terminal His-tagged chitotriosidase expressed in CHO-K1 cells using 4-methylumbelliferyl-beta-D-N,N',N\"\"-triacetylchitotrioside as substrate after 60 mins by fluorescence assay. Type of series: cell-based.
A short description of series [4]: Tmax in BALB/c mouse at 10 mg/kg, po by LC-MS/MS analysis. It counts as ADME, organism-based. The following applies: in vivo.
Series [5] can be described thus: Clearance in BALB/c mouse at 3 mg/kg, iv by LC-MS/MS analysis. It counts as ADME, organism-based. Particulars: in vivo.
The nature of series [6]: Volume of distribution at steady state in BALB/c mouse at 3 mg/kg, iv by LC-MS/MS analysis. It counts as ADME, organism-based. Particulars: in vivo, read-out: Vdss.
Series [7] is described as follows: Oral bioavailability in BALB/c mouse at 10 mg/kg by LC-MS/MS analysis. It counts as ADME, organism-based. Particulars: in vivo.
Series [8] in a line: Cmax in BALB/c mouse at 10 mg/kg, po by LC-MS/MS analysis. The following applies: in vivo. Set-up: dose 10 mg/kg, route oral. It counts as ADME, organism-based.
A short description of series [9]: Stability in liver microsomes (unknown origin) assessed as compound remaining after 20 mins. It counts as ADME, microsome. The following applies: read-out: Stability.
Series [10] is described as follows: AUC (0 to infinity) in BALB/c mouse at 3 mg/kg, iv by LC-MS/MS analysis. Particulars: in vivo. Also on record: dose 3 mg/kg, route intravenous, time infinity. Type of series: ADME, organism-based.
Series [11] in a line: Half life in BALB/c mouse at 3 mg/kg, iv by LC-MS/MS analysis. It counts as ADME, organism-based. The following applies: in vivo.
The nature of series [12]: AUC (0 to infinity) in BALB/c mouse at 10 mg/kg, po by LC-MS/MS analysis. It counts as ADME, organism-based. The following applies: in vivo. Set-up: dose 10 mg/kg, route oral, time infinity.
Series [13] addresses T3, Chitotriosidase-1. Kind of series: Inhibition of mouse recombinant full length C-terminal His-tagged chitotriosidase expressed in CHO-K1 cells using 4-methylumbelliferyl-beta-D-N,N',N\"\"-triacetylchitotrioside as substrate after 60 mins by Lineweaver-Burk plot analysis. It counts as cell-based.
In series [14] the target is T2, Acidic mammalian chitinase. Briefly: Inhibition of mouse recombinant full length C-terminal His-tagged acidic mammalian chitinase expressed in CHO-K1 cells using 4-methylumbelliferyl-beta-D-N,N'-diacetylchitobioside hydrate as substrate after 60 mins by Lineweaver-Burk plot analysis.
Series [15] deals with T1, Chitotriosidase-1. Kind of series: Inhibition of human recombinant full length C-terminal His-tagged chitotriosidase expressed in CHO-K1 cells using 4-methylumbelliferyl-beta-D-N,N',N\"\"-triacetylchitotrioside as substrate after 60 mins by Lineweaver-Burk plot analysis. It counts as cell-based.
In another series the test system is Salmonella typhimurium. Briefly: Genotoxicity in Salmonella typhimurium by Ames test. It counts as toxicity. The following applies: salmonella enterica subsp. enterica serovar typhimurium.

This is an account of results in ChEMBL document CHEMBL4020821, “Targeting Acidic Mammalian chitinase Is Effective in Animal Model of Asthma” (J Med Chem, 2018).

As usually defined, the IC50 is the concentration at which inhibition is half-maximal. Broadly, the Tmax is the time at which the peak concentration occurs. As usually defined, the clearance is the rate of elimination divided by the concentration. The low end stands for inefficient removal, the high end for efficient removal. A word on the bioavailability: it is the share of a dose that reaches the circulation, judged against a reference dose that is usually intravenous. High values mean good availability, low ones poor availability. As a reminder, the Cmax is the peak of the concentration-time curve. As usually defined, the AUC(0-inf) is total exposure, with the tail of the curve extrapolated. Low readings indicate less exposure, high ones more exposure. Usually half-life stands for the time needed for the level to fall by half in the phase considered. The low end stands for rapid decline, the high end for slow decline. Broadly, the Ki is a dissociation constant, usually derived from enzyme kinetics or from competition with a known ligand.

The structures appear in SMILES notation.

T1 sequence (Q13231 whole entry): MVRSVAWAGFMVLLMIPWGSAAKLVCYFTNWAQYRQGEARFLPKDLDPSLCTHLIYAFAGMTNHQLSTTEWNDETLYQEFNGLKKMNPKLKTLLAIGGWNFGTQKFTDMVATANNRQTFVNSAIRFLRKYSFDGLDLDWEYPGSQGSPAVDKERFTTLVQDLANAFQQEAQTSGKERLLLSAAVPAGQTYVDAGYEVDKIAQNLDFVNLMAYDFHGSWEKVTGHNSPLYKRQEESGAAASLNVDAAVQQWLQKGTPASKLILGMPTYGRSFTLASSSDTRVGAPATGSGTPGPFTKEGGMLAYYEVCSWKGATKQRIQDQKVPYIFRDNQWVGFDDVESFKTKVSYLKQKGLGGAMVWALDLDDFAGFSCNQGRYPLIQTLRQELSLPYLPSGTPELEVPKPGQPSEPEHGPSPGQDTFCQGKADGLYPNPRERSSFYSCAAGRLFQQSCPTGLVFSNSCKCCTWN
T3 sequence (Q9D7Q1 whole entry): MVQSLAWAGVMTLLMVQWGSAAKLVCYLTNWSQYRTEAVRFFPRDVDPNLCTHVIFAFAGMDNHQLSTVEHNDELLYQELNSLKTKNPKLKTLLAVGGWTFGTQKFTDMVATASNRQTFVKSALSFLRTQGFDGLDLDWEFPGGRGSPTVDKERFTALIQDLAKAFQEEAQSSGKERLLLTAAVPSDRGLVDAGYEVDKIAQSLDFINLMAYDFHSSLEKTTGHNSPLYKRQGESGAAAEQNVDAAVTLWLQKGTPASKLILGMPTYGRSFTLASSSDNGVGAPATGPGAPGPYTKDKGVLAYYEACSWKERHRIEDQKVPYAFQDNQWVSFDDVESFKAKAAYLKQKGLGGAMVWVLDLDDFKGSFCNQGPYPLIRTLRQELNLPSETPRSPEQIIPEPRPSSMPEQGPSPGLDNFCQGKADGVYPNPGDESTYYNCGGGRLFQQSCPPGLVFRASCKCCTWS

Turning to `Nc1n[nH]c(N2CCN(CCOc3ccc(Br)cc3)CC2)n1`, the IC50 on Chitotriosidase-1 [1] stood at 6.76 µM; in series [2], 2.1 µM; at Chitotriosidase-1 [3], 19.8 µM.
`Nc1n[nH]c(N2CCC(NC(=O)Nc3ccc(Br)cc3)CC2)n1`: the IC50 at Chitotriosidase-1 [1] and on Chitotriosidase-1 [3] was greater than 100 µM throughout.
For the molecule `CN(CCc1ccccc1)C1CCN(c2nc(N)n[nH]2)CC1`, the IC50 on Chitotriosidase-1 [1] and on Chitotriosidase-1 [3] was greater than 100 µM in each case.
As to `CN(CCc1ccc(Cl)cc1)C1CCN(c2nc(N)n[nH]2)CC1`, the IC50 came to 0.389 µM at Chitotriosidase-1 [1] and 7.47 µM at Chitotriosidase-1 [3].
As to `CN(CCc1ccc(C(C)(C)C)cc1)C1CCN(c2nc(N)n[nH]2)CC1`, the results for the IC50 at Chitotriosidase-1 [1] and at Chitotriosidase-1 [3] were 4.16 µM and greater than 100 µM, respectively.
As for `Nc1n[nH]c(N2CCC(NS(=O)(=O)Cc3ccc(Br)cc3)CC2)n1`, the Tmax in [4] was found to be 1 h. The IC50 at Chitotriosidase-1 [1] and on Chitotriosidase-1 [3] was greater than 100 µM in each case. In series [5], this molecule showed a clearance of 0.69 L/h/kg. In addition, the Vd in series [6] is 1.16 L/kg. The molecule further gave a bioavailability in series [7] of 57%. The molecule also had a Cmax in series [8] of 3.25 µg/mL. In addition, the remaining at 20 min in series [9] was 100%. For the same molecule, the AUC(0-inf) was found to be 4.34 µg·h/mL in [10] and 8.21 µg·h/mL in [12]. The half-life in [11] was 11.1 h.
Regarding `CC(C)CN(CCc1ccc(Br)cc1)C1CCN(c2nc(N)n[nH]2)CC1`, in series [4], the Tmax amounted to 0.5 h. For the same molecule, the figures for the concentration for half-maximal inhibition (IC50) at Chitotriosidase-1 [1] and at Chitotriosidase-1 [3] were 0.123 µM and 1.27 µM, respectively. The clearance in series [5] is 0.512 L/h/kg. Moreover, the Vd in series [6] amounted to 1.66 L/kg. In addition, in series [7], the bioavailability stood at 100%. For the same molecule, the Cmax in series [8] worked out at 6.04 µg/mL. The remaining at 20 min in [9] came to 78.3%. For the same molecule, the results for the AUC(0-inf) in series [10] and in [12] were 5.86 µg·h/mL and 27.9 µg·h/mL, respectively. This molecule had a half-life in series [11] of 3.25 h.
For the molecule `CC(C)c1ccc(CCN(C)C2CCN(c3nc(N)n[nH]3)CC2)cc1`, the IC50 was 1.17 µM at Chitotriosidase-1 [1] and 6.96 µM at Chitotriosidase-1 [3].
For the molecule `Nc1n[nH]c(N2CCC(C(=O)NCc3ccc(Br)cc3)CC2)n1`, the IC50 on Chitotriosidase-1 [1] and on Chitotriosidase-1 [3] was greater than 100 µM in each case.
On to `CCN(CCc1ccc(Cl)cc1)C1CCN(c2nc(N)n[nH]2)CC1`, for which the IC50 stood at 0.385 µM at Chitotriosidase-1 [1] and 7.08 µM at Chitotriosidase-1 [3].
Regarding `CC(C)N(CCc1ccc(Cl)cc1)C1CCN(c2nc(N)n[nH]2)CC1`, the IC50 stood at 0.945 µM at Chitotriosidase-1 [1] and 15.6 µM on Chitotriosidase-1 [3].
As to `CC(C)CN(CCc1ccc(Cl)cc1)C1CCN(c2nc(N)n[nH]2)CC1`, the Tmax in series [4] is 0.25 h. The IC50 at Chitotriosidase-1 [1] was found to be 0.232 µM; in [2], 0.0188 µM; at Chitotriosidase-1 [3], 2.96 µM. Besides, the Ki at Chitotriosidase-1 [13] was found to be 3.4 µM; in series [14], 0.0105 µM; at Chitotriosidase-1 [15] it was 0.312 µM. The molecule also came in with a clearance in series [5] of 0.544 L/h/kg. Moreover, the Vd in series [6] is 2.33 L/kg. Also, the bioavailability in series [7] was found to be 52%. For the same molecule, the highest level in series [8] (Cmax) was 1.86 µg/mL. For the same molecule, the remaining at 20 min in [9] was 76.9%. Also, the AUC(0-inf) in series [10] stood at 5.52 µg·h/mL; in series [12], 9.56 µg·h/mL. Also, the Activity entry in the series on Salmonella typhimurium is recorded as “Non-Toxic”. In series [11], this molecule had a half-life of 2.97 h.
On to `Nc1n[nH]c(N2CCC(N(CCc3ccc(Cl)cc3)Cc3ccccc3)CC2)n1`, for which the IC50 at Chitotriosidase-1 [1] is 0.163 µM; in series [2], 0.0112 µM; on Chitotriosidase-1 [3], 1.51 µM.
As to `Nc1n[nH]c(N2CCC(N(CCc3ccc(Cl)cc3)Cc3ccccc3Cl)CC2)n1`, in [4], the Tmax was determined as 1 h. For the same molecule, the half-inhibitory concentration (IC50) on Chitotriosidase-1 [1] stood at 0.149 µM; in series [2], 0.0097 µM; at Chitotriosidase-1 [3], 2.58 µM. Also, in series [5], the clearance was 2.7 L/h/kg. Besides, in series [6], the Vd came out at 3.03 L/kg. Moreover, the bioavailability in series [7] came to 47%. In series [8], this molecule returned a Cmax of 0.618 µg/mL. Moreover, in series [9], the remaining at 20 min stood at 21%. Moreover, the values for the AUC(0-inf) in series [10] and in [12] were 1.11 µg·h/mL and 1.75 µg·h/mL, respectively. Also, in [11], the half-life is 6.78 h.
For the molecule `CN(Cc1ccc(Br)cc1)CC1CCN(c2nc(N)n[nH]2)CC1`, the IC50 on Chitotriosidase-1 [1] and on Chitotriosidase-1 [3] was greater than 100 µM each time.
Take `Cc1ccc(CCN(C)C2CCN(c3nc(N)n[nH]3)CC2)cc1`: the figures for the IC50 at Chitotriosidase-1 [1] and on Chitotriosidase-1 [3] were 1.53 µM and 12.6 µM, respectively.
On to `Nc1n[nH]c(N2CCC(N(CCc3ccc(Cl)cc3)CC3CCCCC3)CC2)n1`, for which the IC50 at Chitotriosidase-1 [1] was determined as 0.123 µM; at Chitotriosidase-1 [3] it was 2.03 µM.
`CN(CCc1ccc(Cl)cc1Cl)C1CCN(c2nc(N)n[nH]2)CC1`: the values for the IC50 on Chitotriosidase-1 [1] and on Chitotriosidase-1 [3] were 2.26 µM and 47.6 µM, respectively.
Regarding `Nc1n[nH]c(N2CCC(N(CCc3ccc(Cl)cc3)Cc3cccc4ccccc34)CC2)n1`, the IC50 at Chitotriosidase-1 [1] stood at 0.036 µM; at Chitotriosidase-1 [3], 0.573 µM.
As for `CN(CCc1ccc(Br)cc1)C1CCN(c2nc(N)n[nH]2)CC1`, the Tmax in series [4] stood at 2 h. In addition, the IC50 was found to be 0.175 µM on Chitotriosidase-1 [1] and 2.7 µM at Chitotriosidase-1 [3]. Also, the clearance in series [5] worked out at 3.16 L/h/kg. Besides, in [6], the Vd came out at 12.8 L/kg. This molecule also had a bioavailability in series [7] of 99%. Moreover, the Cmax in [8] is 0.672 µg/mL. Also, the remaining at 20 min in series [9] is 97.5%. The AUC(0-inf) in series [10] was 0.95 µg·h/mL; in series [12], 3.34 µg·h/mL. This molecule showed a half-life in series [11] of 4.4 h.
As for `Nc1n[nH]c(N2CCC(NC(=O)Cc3ccc(Br)cc3)CC2)n1`, the IC50 on Chitotriosidase-1 [1] and on Chitotriosidase-1 [3] was greater than 100 µM each time.
As for `CN(CCc1ccc(C2CC2)cc1)C1CCN(c2nc(N)n[nH]2)CC1`, the IC50 on Chitotriosidase-1 [1] came to 0.765 µM; on Chitotriosidase-1 [3], 3.07 µM.
Take `CN(C1CCN(c2nc(N)n[nH]2)CC1)S(=O)(=O)Cc1ccc(Br)cc1`: the IC50 at Chitotriosidase-1 [1] and at Chitotriosidase-1 [3] was greater than 100 µM each time.
In the case of `Nc1n[nH]c(N2CCN(C(=O)COc3ccc(Br)cc3)CC2)n1`, the IC50 on Chitotriosidase-1 [1] and on Chitotriosidase-1 [3] was greater than 100 µM throughout.
With `CCN(CCc1ccc(Br)cc1)C1CCN(c2nc(N)n[nH]2)CC1`, the IC50 on Chitotriosidase-1 [1] was determined as 0.105 µM; at Chitotriosidase-1 [3] it was 2.72 µM.
As for `Nc1n[nH]c(N2CCC(CNC(=O)c3ccc(Br)cc3)CC2)n1`, the IC50 at Chitotriosidase-1 [1] was 23.1 µM; at Chitotriosidase-1 [3] it was greater than 100 µM.
Regarding `CCc1ccc(CCN(C)C2CCN(c3nc(N)n[nH]3)CC2)cc1`, the IC50 on Chitotriosidase-1 [3] worked out at 7.12 µM.
